# Source: patent US20030114375A1, “Method for treating cystic fibrosis” (The Government of the USA, Dept of Health and Human …, priority 1994, published 2003)
# Values joined by “and” are separate entries in the source; they are usually repeats but may differ in a detail not shown here. Equal entries are not always repeated. “Also recorded” adds a separate entry of the source. Where two headings read alike, the source gives them in different places.
# Tests used:
# [1] = molecular target: T1, CFTR polypeptide Iα [SEQ ID NO:1] (Homo sapiens, UniProt P13569); test: 3H-CPX binding to Iα polypeptide (dot blot filter binding, displacement)
# T1 construct: made in house; host or cells: chemical solid-phase synthesis (Yale University)
# Description: CPX was used as a representative compound known to activate chloride ion efflux from ΔF508 mutant cells. Stock solutions of CPX were prepared in DMSO in the millimolar concentration range. […] For displacement studies, unlabeled CPX, or other xanthine antagonists and nucleotides, were added to the incubation mixture before the radioactive probe. The mixture was then filtered through a nitrocellulose (NC) membrane (Schleicher & Schuell) by using a standard dot blot apparatus. […] The dot blots were then washed five times with 200 μl TRIS buffer-NaCl solutions (50 mM TRIS pH=7.0, 150 mM NaCl), radioactive spots were cut out, and the total was radioactivity determined by liquid scintillation counting.
# Iα polypeptide = molecular target: T2, Iα polypeptide (Homo sapiens, UniProt P13569); test: Phosphatidylserine liposome aggregation driven by Iα polypeptide; assay type: biochemical; settings: 0.5 μg/ml (0.18 μM) Iα; for Effect on PS liposome aggregation driven by Iα: 2-thio-CPX up to 1 μM, IBMX up to 15 μM
# T2 construct: made in house; host or cells: chemical solid-phase synthesis (Yale University)
# Description: Liposome aggregation assay: Phosphatidylserine (“PS”, obtained from Avanti) was dissolved in chloroform, and small unilamellar liposomes were prepared by the extrusion process known in the art. A Lipex machine was used to extrude the PS in a buffer consisting of 10 mM Na-HEPES, pH 7.2 and 1 mM EDTA. The liposomes were diluted to a final optical density at 540 nm of 0.01 and incubated with different concentrations of the different polypeptides and/or chloride ion efflux-activating compounds.
# A2a-adenosine receptor = molecular target: T3, A2a-adenosine receptor (Rattus norvegicus, UniProt P30543); test: Inhibition of [3H]CGS 21680 binding to A2a receptors; settings: for Ki: rat striatal membranes, 5 nM [3H]CGS 21680, read-out: Ki, μM(A2)
# T3 construct: Rat cerebral cortical membranes and striatal membranes were prepared; from tissue; host or cells: rat striatal membranes
# T3 sequence (P30543 whole entry): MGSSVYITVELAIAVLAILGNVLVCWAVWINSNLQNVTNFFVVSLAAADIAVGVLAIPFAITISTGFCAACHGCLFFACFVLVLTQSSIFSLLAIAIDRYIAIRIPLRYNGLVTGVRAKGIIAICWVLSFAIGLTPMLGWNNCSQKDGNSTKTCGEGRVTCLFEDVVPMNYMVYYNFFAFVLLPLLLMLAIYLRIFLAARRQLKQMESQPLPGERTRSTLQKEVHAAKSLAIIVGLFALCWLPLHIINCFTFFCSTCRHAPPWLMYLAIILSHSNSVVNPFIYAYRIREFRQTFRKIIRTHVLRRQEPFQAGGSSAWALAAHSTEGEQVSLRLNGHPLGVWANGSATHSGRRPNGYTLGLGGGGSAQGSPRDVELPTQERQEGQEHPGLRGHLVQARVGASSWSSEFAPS
# Description: (§1) Solid samples of the adenosine derivatives were dissolved in dimethyl sulfoxide (DMSO) and stored in the art at. −20° C. The stock solutions were diluted with DMSO to a concentration of ≦0.1 mM prior to addition to the aqueous medium. The final concentration of DMSO in the assay medium was generally 2%.
# Membranes (^˜80 μg protein per tube) were incubated for one hour at 25° C. in a total volume of 0.5 ml of a buffer solution consisting of […] tris hydrochloride and 10 mM MgCl2 at pH 7.4. Test drugs were dissolved in DMSO and added in 10 μl aliquots, resulting in a final DMSO concentration of 2%. Non-specific binding was defined using 20 μM 2-chloroadenosine. Filtration was carried out using a Brandel Cell Harvester, as above, using the tris.HCl/MgCl2 buffer recited hereinabove as the washing buffer.
# (§2) At least six different concentrations spanning three orders of magnitude, adjusted appropriately for the IC50 of each compound, were used.
# CFPAC cells [2] = settings: read from the graphs
# CFPAC cells [3] = test: [36Cl]- efflux from CFPAC cells; settings: for Efflux rate as compared to control (FIGS. 9-12): read from the graphs; for % control: chloride efflux at minimum detection relative to control: at threshold concentration
# CFPAC cells [4] = settings: U.S. Pat. No. 5,366,977 / Eidelman et al.; cited from earlier work
# A1-adenosine receptor = molecular target: T4, A1-adenosine receptor (Rattus norvegicus, UniProt P25099); test: Inhibition of [3H]N6-phenylisopropyladenosine binding to A1 receptors; settings: for Ki: rat cerebral cortex membranes, 1 nM [3H]PIA, read-out: Ki, μM(A1)
# T4 construct: Rat cerebral cortical membranes and striatal membranes were prepared; from tissue; host or cells: rat cerebral cortex membranes
# T4 sequence (P25099 1-326): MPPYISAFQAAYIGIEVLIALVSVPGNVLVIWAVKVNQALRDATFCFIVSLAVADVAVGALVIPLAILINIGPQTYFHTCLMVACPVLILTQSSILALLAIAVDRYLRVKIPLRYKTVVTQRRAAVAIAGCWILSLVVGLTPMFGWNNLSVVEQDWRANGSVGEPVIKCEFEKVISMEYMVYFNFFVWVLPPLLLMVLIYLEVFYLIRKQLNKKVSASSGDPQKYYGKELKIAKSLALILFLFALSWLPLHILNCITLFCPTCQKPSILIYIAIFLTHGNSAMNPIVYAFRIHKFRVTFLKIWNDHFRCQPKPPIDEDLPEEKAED
# Description: as §1
# Inhibition of binding of 1 nM [^3H]N^6-phenylisopropyladenosine (Dupont NEN, Boston, Mass.) to A1 receptors in rat cerebral cortex membranes was measured as described in Schwabe et al., Naunyn-Schmiedeberg's Arch. […] Membranes (^˜100 μg protein per tube) were incubated for 1.5 hours at 37° C. in a total volume of 0.5 ml of 50 mM tris hydrochloride at pH 7.4. Test drugs were dissolved in DMSO and added in 10 μl aliquots, resulting in a final DMSO concentration of 2%. Bound and free radioligand were separated by addition of 3 ml of a buffer containing 50 mM tris hydrochloride, at pH 7.4 at 5° C., followed by vacuum filtration using a Brandel Cell Harvester (Brandel, Gaithersburg, Md.) and a Whatman GF/B glass fiber filter with additional washes totaling 9 ml of buffer. Non-specific binding was determined with 10 μM 2-chloroadenosine.
# as §2
# [5] = test system: bovine chromaffin granules; test: Chromaffin granule aggregation assay; assay type: biochemical; settings: for Aggregation of chromaffin granules: 1 mM CaCl2, 20 μg/ml polypeptide
# Description: Chromaffin granule aggregation assay: Adrenal glands were obtained from a local abattoir and transported to the laboratory on ice within 2 hours of slaughter. Tissue was processed as described in Brocklehurst et al. in Polypeptide Hormones: A Practical Approach (Oxford Univ. Press, K. Siddle and J. Hutton, eds., 1990) at pp. 237-255. Chromaffin granules were purified on a step gradient of metrizamide using standard procedures. After resuspension, the granule aggregation assay was performed as described (Brocklehurst et al., supra), and the synexin activity was assessed from the initial rate of optical density increase at 540 nm. Briefly, the assay was carried out at room temperature in a 1 ml quartz cuvette containing the chromaffin granule suspension in 0.3 mol/l sucrose, 40 mmol/l histidine buffer, pH 6.0, synexin and variable amounts of calcium chloride.
compound,measurement,setting,value
3-isobutylmethyl xanthine [Compound 3],Displacement of 3H-CPX binding to Iα,[1],not effected
same,Effect on PS liposome aggregation driven by Iα,Iα polypeptide,entirely inactive
same,Ki,A2a-adenosine receptor,16 µM
CCn1c(C2CCCCC2)nc2c1c(=O)n(C)c(=O)n2C (hydrate or solvate) [Compound 15],melting point,,> 170 °C
Cn1c(=O)c2c(nc(C3CCCCC3)n2CC2CC2)n(C)c1=O (hydrate or solvate) [Compound 16],melting point,,> 120 °C
"Nc1ncnc2c1ncn2[C@@H]1O[C@H](CO)[C@@H](O)[C@H]1O [Adenosine, adenosine]",Effect on PS liposome aggregation driven by Iα,Iα polypeptide,modest but evident biphasic effect
"Cn1c(=O)c2[nH]cnc2n(C)c1=O [Compound 1, theophylline, reference compound]",Efflux rate as compared to control (FIGS. 9-12),CFPAC cells [2],200%
same,Conc. max. (nM): concentration at maximum impact upon chloride efflux,CFPAC cells [3],100 nM
same,thresh (nM): minimum concentration required to detect an effect upon chloride efflux,CFPAC cells [3],1 nM
"Cn1c(=O)c2[nH]c(C3CCCC3)nc2n(C)c1=O [Compound 4, 1,3-dimethyl-8-cyclopentylxanthine, reference compound]","Activation of chloride efflux from CF cells (words, prior disclosure)",CFPAC cells [4],ineffective
same,Conc. max. (nM): concentration at maximum impact upon chloride efflux,CFPAC cells [3],>>10^4 nM
same,Affinity for A1 receptor,A1-adenosine receptor,highest A1 affinity
same,Ki,A1-adenosine receptor,0.011 µM
"CCCn1c(=O)c2[nH]c(C3CCCC3)nc2n(CCC)c1=O [Compound 5, 1,3-dipropyl-8-cyclopentylxanthine, reference compound]","Activation of chloride efflux from CF cells (words, prior disclosure)",CFPAC cells [4],promotes chloride efflux
same,Displacement of 3H-CPX binding to Iα,[1],Displacement of binding was effected
same,Kd,"[1]; Scatchard plot, n=4, 100 nM Iα",69 ± 27 nM
same,Conc. max. (nM): concentration at maximum impact upon chloride efflux,CFPAC cells [3],30 nM
same,thresh (nM): minimum concentration required to detect an effect upon chloride efflux,CFPAC cells [3],1 nM
same,Efflux rate as compared to control (FIGS. 9-12),CFPAC cells [3],200%
same,Concentration at maximum rate and extent of Iα-driven liposome aggregation,Iα polypeptide,100 nM
same,Affinity for A1 receptor,A1-adenosine receptor,high affinity
"CCCn1c(=O)c2[nH]c(C3CCCC3)nc2n(CCC)c1=S [Compound 8, 2-thio-8-cylcopentyl-1,3-dipropylxanthine, reference compound]","Activation of chloride efflux from CF cells (words, prior disclosure)",CFPAC cells [4],ineffective
same,Displacement of 3H-CPX binding to Iα,[1],not effected
same,Conc. max. (nM): concentration at maximum impact upon chloride efflux,CFPAC cells [3],>>10^4 nM
same,Effect on PS liposome aggregation driven by Iα,Iα polypeptide,entirely inactive
same,Ki,A2a-adenosine receptor,0.31 µM
same,Ki,A1-adenosine receptor,0.00066 µM
"CCCn1c(=O)c2[nH]c(C34CC5CC(CC3C5)C4)nc2n(CCC)c1=O [Compound 12, 1,3-dipropyl-8-noradamantylxanthine, reference compound]","Activation of chloride efflux from CF cells (words, prior disclosure)",CFPAC cells [4],ineffective
same,Conc. max. (nM): concentration at maximum impact upon chloride efflux,CFPAC cells [3],10 nM
same,thresh (nM): minimum concentration required to detect an effect upon chloride efflux,CFPAC cells [3],1 nM
same,% control: chloride efflux at minimum detection relative to control,CFPAC cells [3],120% and 120 ± 5%
same,Ki,A2a-adenosine receptor,0.38 µM
same,Ki,A1-adenosine receptor,0.0013 µM
"CCCn1c(=O)c2c(nc(C3CCCCC3)n2C)n(CCC)c1=O [Compound 19, 1,3-dipropyl-7-methyl-8-cyclohexylxanthine]",Chloride efflux stimulation (summary words),CFPAC cells [3],stimulate chloride efflux at μM or lesser concentrations; also recorded: substantial efflux activity at low concentration ranges
same,Conc. max. (nM): concentration at maximum impact upon chloride efflux,CFPAC cells [3],5 nM
same,thresh (nM): minimum concentration required to detect an effect upon chloride efflux,CFPAC cells [3],5 nM
same,% control: chloride efflux at maximum impact relative to control,CFPAC cells [3]; at Conc. max.,170 ± 50%
same,% control: chloride efflux at minimum detection relative to control,CFPAC cells [3],170 ± 50%
same,Ki,A2a-adenosine receptor,9.24 ± 0.37 µM
same,Ki,A1-adenosine receptor,2.7 µM
Cn1c(=O)c2[nH]c(CC3CCCCC3)nc2n(C)c1=O [Compound 21],Conc. max. (nM): concentration at maximum impact upon chloride efflux,CFPAC cells [3],>>10^4 nM
same,Ki,A2a-adenosine receptor,5.47 ± 0.86 µM
same,melting point,,236 to 238 °C
same,Ki,A1-adenosine receptor,0.61 ± 0.076 µM
"Cn1c(=O)c2c(nc(CC3CCCCC3)n2C)n(C)c1=O [Compound 22, 8-cyclohexylmethyl caffeine]",Conc. max. (nM): concentration at maximum impact upon chloride efflux,CFPAC cells [3],>>10^4 nM
same,Efflux rate as compared to control (FIGS. 9-12),CFPAC cells [3],200%
same,Ki,A2a-adenosine receptor,5.46 ± 0.47 µM
same,Ki,A1-adenosine receptor,3.71 ± 0.36 µM
Cn1c(=O)c2[nH]c(C3CCCCCC3)nc2n(C)c1=O [Compound 23],Conc. max. (nM): concentration at maximum impact upon chloride efflux,CFPAC cells [3],>>10^4 nM
same,Ki,A2a-adenosine receptor,1.05 ± 0.19 µM
same,melting point,,223 to 225 °C
same,Ki,A1-adenosine receptor,0.0659 ± 0.0145 µM
Cn1c(=O)c2c(nc(C3CCCCCC3)n2C)n(C)c1=O [Compound 24],Conc. max. (nM): concentration at maximum impact upon chloride efflux,CFPAC cells [3],>>10^4 nM
same,A2a affinity (fold),A2a-adenosine receptor; A2a versus A1,6 fold
same,Ki,A2a-adenosine receptor,3.27 ± 0.98 µM
same,Ki,A1-adenosine receptor,19.5 ± 2.5 µM
"CCn1cnc2c(NC3CCCC3)ncnc21 [Compound 27, 9-ethyl-6-cyclopenyladenine, reference compound]",Conc. max. (nM): concentration at maximum impact upon chloride efflux,CFPAC cells [3],>>10^4 nM
same,Ki,A2a-adenosine receptor,17 µM
same,Ki,A1-adenosine receptor,0.44 µM
"CFTR polypeptide, amino acid positions 477 to 508, NH2-PSEGKIKHSGRISFCSQFSWIMPGTIKENEEF-COOH [Iα]",Aggregation of chromaffin granules,[5],drive aggregation
same,"k1/2,app of chromaffin granule aggregation","[5]; 1 mM CaCl2, pH 6.0",22.2 µg/mL
same,EC50,"[5]; 1 mM CaCl2, pH 6.0, read-out: k1/2,app of chromaffin granule aggregation",6300 nM
"Io: CFTR polypeptide, positions 500 to 530, NH2-GTIKENEEFGVSYDEYRYRSVIKACQLEEDIS-COOH",Aggregation of chromaffin granules,[5],inactive
"Iβ: CFTR polypeptide, positions 509 to 539, NH2-GVSYDEYRYRSVIKACQLEEDISKFAEKDNI-COOH",Aggregation of chromaffin granules,[5],essentially inactive
